The results in this text go back to patent US6025358A, “Double prodrugs of potent GP IIb/IIIa antagonists” (G. D. Searle & Co., priority 1999, dated 2000).

Structures are written as SMILES. Structures can show the parent of a compound that is named as a salt.

One assay concerns platelet aggregation. In words: Ex vivo screening of oral GP IIb/IIIa inhibitors: inhibition of collagen-induced platelet aggregation in PRP after oral dosing in beagles. Conditions: Canis lupus familiaris, Platelet, beagle dogs, 5 mpk, n = 2, 32 hours post-dosing, collagen agonist, read-out: Percent inhibition of platelet aggregation at 32 hour post-dosing. As to the method: Beagles (8-13 kg, various sources) of either sex are dosed orally with compound in a gelatin capsule. Blood samples are drawn from the cephalic vein using a 23 ga infusion butterfly. Samples for platelet aggregation and drug concentration are taken prior to dosing and 0.5, 1, 2, 3, 5, 7 and 10 hours after dosing and periodically on subsequent days until inhibition of platelet aggregation is less than 30%. Animals are fasted, with ad lib access to water, overnight prior to dosing. For measurement of plasma concentration blood is drawn into a 3 ml tube containing 45 USP units of Na Heparin. Blood is centrifuged at 1700×g for 10 minutes, plasma is aspirated and frozen at -20° C. until analyzed by HPLC. For measurement of platelet aggregation, blood is drawn into 2 2.0 ml tubes containing 0.2 ml of 3.8% Na Citrate. Blood is centrifuged at 250×g for 6 minutes and the platelet rich plasma (PRP) is aspirated. The remaining blood is centrifuged at 1700×g for 10 minutes and platelet poor plasma (PPP) is aspirated. Platelet aggregation is performed in a Bio-Data PAP-4 aggregometer (Bio-Data Corp., Havertown, Pa.) using collagen (100 μg/ml final concentration; Helena Laboratories, Beaumont, Tex.) as the agonist. Briefly, baseline (100% aggregation) is set using PPP; PRP is incubated at 37° C. for one minute without stirring and one minute with stirring, agonist is added and aggregation is allowed to develop for 4 minutes. Percent aggregation post-dosing is compared to percent aggregation pre-dosing to determine percent inhibition.
Percent inhibition of platelet aggregation at 32 hour post-dosing in
beagle dogs (5 mpk, n = 2)
Take `CCOC(=O)CCNC(=O)N[C@H]1CCN(c2ccc(C(N)=NOC(N)=O)cc2)C1=O` [5(a), N-[[[(3S)-1-[4-[[[(aminocarbonyl)oxy]amino]iminomethyl]phenyl]-2-oxo-3-pyrrolidinyl]amino]carbonyl]-β-alanine ethyl ester]: the inhibition in vivo at 5 mg/kg is 82%.
As for `CC(C)OC(=O)CCNC(=O)N[C@H]1CCN(c2ccc(C(N)=NOC(N)=O)cc2)C1=O` [5(b), N-[[[(3S)-1-[4-[[[(aminocarbonyl)oxy]amino]iminomethyl]phenyl]-2-oxo-3-pyrrolidinyl]amino]carbonyl]-β-alanine 1-methylethyl ester], the inhibition in vivo at 5 mg/kg came out at 64%.
Still for that read-out and setting: the figure for `NC(=O)ON=C(N)c1ccc(N2CC[C@H](NC(=O)NCCC(=O)OC3CCCCC3)C2=O)cc1` [5(h), N-[[[(3S)-1-[4-[[[(aminocarbonyl)oxy]amino]iminomethyl]phenyl]-2-oxo-3-pyrrolidinyl]amino]carbonyl]-β-alanine cyclohexyl ester] is 28%; for `COC(=O)CCNC(=O)N[C@H]1CCN(c2ccc(C(N)=NO)cc2)C1=O` [Example 1(a), N-[[[(3S)-1-[4-[(hydroxyamino)iminomethyl]phenyl]-2-oxo-3-pyrrolidinyl]amino]carbonyl]-β-alanine methyl ester] it is 85%; for `CCOC(=O)CCNC(=O)N[C@H]1CCN(c2ccc(C(N)=NO)cc2)C1=O` [Example 1, N-[[[(3S)-1-[4-[(hydroxyamino)iminomethyl]phenyl]-2-oxo-3-pyrrolidinyl]amino]carbonyl]-β-alanine ethyl ester monohydrochloride] it is 95%.
With `COC(=O)CCNC(=O)N[C@H]1CCN(c2ccc(C(=N)NOC(=O)N3CCN(C)CC3)cc2)C1=O` [Example 3, N-[[[(3S)-1-[4-[imino[[[(4-methyl-1-piperazinyl)-carbonyl]oxy]amino]-methyl]phenyl]-2-oxo-3-pyrrolidinyl]amino]carbonyl]-β-alanine methyl ester], the inhibition in vivo at 5 mg/kg is 66%.
On to `COC(=O)CCNC(=O)N[C@H]1CCN(c2ccc(C(N)=NOC(=O)N(C)C)cc2)C1=O` [Example 4, N-[[[(3S)-1-[4-[[[[(dimethylamino)carbonyl]oxy]amino]iminomethyl]phenyl]-2-oxo-3-pyrrolidinyl]amino]carbonyl]-β-alanine methyl ester], for which the inhibition in vivo at 5 mg/kg was 68%.
With `COC(=O)CCNC(=O)N[C@H]1CCN(c2ccc(C(N)=NOC(N)=O)cc2)C1=O` [Example 5, N-[[[(3S)-1-[4-[[[(aminocarbonyl)oxy]amino]iminomethyl]-phenyl]-2-oxo-3-pyrrolidinyl]amino]carbonyl]-β-alanine methyl ester], the inhibition in vivo at 5 mg/kg stood at 89%.
For `CCOC(=O)CCNC(=O)N[C@H]1CCN(c2ccc(C(=N)NC(=O)c3ccccc3)cc2)C1=O` [Example 7, N-[[[3(S)-1-[4-[imino[(phenylcarbonyl)amino]methyl]phenyl]-2-oxo-3-pyrrolidinyl]amino]carbonyl]-β-alanine ethyl ester], the inhibition in vivo at 5 mg/kg came out at 53%.
As to `CCOC(=O)CCNC(=O)N[C@H]1CCN(c2ccc(C(N)=NOC(C)=O)cc2)C1=O` [Example 8, N-[[[(3S)-1-[4-[[(acetyloxy)amino]iminomethyl]phenyl]-2-oxo-3-pyrrolidinyl]amino]carbonyl]-β-alanine ethyl ester], the inhibition in vivo at 5 mg/kg came out at 57%.
Still for that read-out and setting: the figure for `CCOC(=O)CCNC(=O)N[C@H]1CCN(c2ccc(C(N)=NOC(=O)OCC)cc2)C1=O` [Example 9, N-[[[(3S)-1-[4-[[[(ethoxycarbonyl)oxy]amino]iminomethyl]phenyl]-2-oxo-3-pyrrolidinyl]amino]carbonyl]-β-alanine ethyl ester] is 90%; for `CCOC(=O)CCNC(=O)N[C@H]1CCN(c2ccc(C(=N)NOC(=O)OCC(Cl)(Cl)Cl)cc2)C1=O` [Example 10, N-[[[(3S)-1-[4-[imino[[[(2,2,2-trichloroethoxy)carbonyl]oxy]amino]methyl]phenyl]-2-oxo-3-pyrrolidinyl]amino]carbonyl]-β-alanine ethyl ester] it is 84%.

Still in this assay, the particulars now being: beagle dogs, 5 mpk, n = 2, 10 hours post-dosing, collagen agonist.
For `CN(C)CCN(C)C(=O)ONC(=N)c1ccc(N2CC[C@H](NC(=O)NCCC(=O)O)C2=O)cc1.O.O=C(O)C(F)(F)F.O=C(O)C(F)(F)F` [6(a), N-[[[(3S)-1-[4-(1-imino-5,8-dimethyl-4-oxo-3-oxa-2,5,8-triazanon-1-yl)phenyl]-2-oxo-3-pyrrolidinyl]amino]carbonyl]-β-alanine bis(trifluoroacetate) monohydrate], the “% inhibition of platelet aggregation @ 10 hours” value turned out to be 61%.
As to `NC(=O)ON=C(N)c1ccc(N2CC[C@H](NC(=O)NCCC(=O)O)C2=O)cc1` [6(d), N-[[[(3S)-1-[4-[[[(aminocarbonyl)oxy]amino]iminomethyl]phenyl]-2-oxo-3-pyrrolidinyl]amino]carbonyl]-β-alanine], the “% inhibition of platelet aggregation @ 10 hours” value was 15%.
On the same count and under the same terms, the figure for `N=C(N)c1ccc(N2CC[C@H](NC(=O)NCCC(=O)O)C2=O)cc1` [6(e), N-[[[(3S)-1-[4-(Aminoiminomethyl)phenyl]-2-oxo-3-pyrrolidinyl]amino]-carbonyl]-β-alanine trifluoroacetate, reference compound] is 28%.
